Here are results for three compounds from patent US10457710B2, “Antimicrobial peptides, their variants and uses” (priority 2015, dated 2019).

Where a SMILES comes first, the peptide text is derived from it. [ ]: non-standard residue; d: D form.

Test [1] deals with clinical strains of bacteria and yeasts. Kind of test: MIC, all clinical bacteria and yeasts tested together. The note with it: bacterial strains other than E. coli. It is filed as cell-based. Here is the method:
Minimum inhibition concetrations (MICs) were determined against Escherichia coli (ATCC 25922), Staphylococcus aureus (ATCC 25923), Klebsiella pneumoniae (ATCC 10031) and Pseudomonas aeruginosa (ATCC 27853). Also clinical strains of E. coli, K. pneumoniae, E. cloacae, P. aeruginosa, Serratia marcescens, Proteus mirabilis, S. pneumoniae, Acinetobacter baumannii, A. johnsonii and S. aureus were used for MICs assays. Additionally, clinical strains of yeast including Candida albicans, C. glabrata, C. parapsilosis and C. quillermondiae were used. The susceptibility of these microorganisms to Chain peptides were determined using micro broth dilution assay. Colonies of the respective microorganism from Muller Hinton (MH) agar plates incubated overnight were suspended in MH broth media and final concentration of microorganism was adjusted to 5.0×10^5 cfu/ml. An aliquot of 10 μl of each Chain peptide, or gentamicin, tetracycline as reference antibiotics were added in differing concentrations along with 90 μl of bacterial suspension to 96 well polypropylene plates and incubated at 37° C. for 20 to 24 hours. Concentrations of Chain peptides and reference antibiotics ranged from 0.125 to 128 μg/ml and the MICs were recorded as the lowest concentration with no visual growth of bacteria. Similarly, antifungal MICs were tested in Potato dextrose broth. […]

The test system of another test is MRSA strains. Kind of test: MIC, synergistic activity with Ertapenem (4 μg/ml). It counts as cell-based, S. aureus. The following applies: Ertapenem 4 μg/ml; D-peptide. Here is the method: Peptides Chain 104, Chain 105, Chain 201, Chain 308, Chain 310 were tested against antibiotic-sensitive strains of S. aureus RN4220 and methicillin resistant strains of S. aureus COL (MRSA). Chain peptides comprising of either L- or D-form amino acids were tested against these bacteria, and the D-form peptides were found have better activity compared to L-form (Table 6). Synergistic activity of chain peptides along with Ertapenem (4 μg/ml) was tested to know whether it will influence the activity against MRSA strains. […] Chain 310 has the best antibacterial activity against the MRSA strains with a MIC of 0.06 & 0.03 μg/ml along with Ertapenem (4 μg/ml) for both forms of L and D-peptides (Table 6).

In test [2] the test system is Klebsiella pneumoniae (ATCC 10031). As to the kind of experiment: Radial diffusion assay (RDA). The following applies: Peptides 50 μg, Gentamycin 5 μg; diameter including the wells. It is filed as cell-based. The protocol: (§1) The radial diffusion assay (RDA) was carried out as described by Andersen et al. (2010). Briefly, 30 ml of 1/10 Muller-Hinton broth (MHB) supplemented with 1% agarose and 5.0×10^5 CFU/ml S. aureus or E. coli or K. pneumoniae, P. aeruginosa cells was poured into a single-well omnitray (Nunc) and overlaid with a TSP 96-well plate. […] The peptides were also tested against Fusarium oxysporum and Verticillium dahliae, for which ⅓ potato dextrose agarose was used. To test the synergistic effect of peptides, each peptide was mixed in equimolar concentrations. Mix1 (met1-12), Mix2 (met3, 4 and 5), Mix3 (met 8, 9 and 10), Mix 4 (met11, 12) and Mix5 (8, 9, 10, 11, 12) were prepared and tested against E. coli and S. aureus. Gentamicin and vancomycin were included as positive controls for bacteria and amphotericin B was used as the control for fungi.

The test system of test [3] is Escherichia coli (ATCC 25922). As to the kind of experiment: Radial diffusion assay (RDA). It counts as cell-based. The note with it: Peptides 50 μg, Gentamycin 5 μg; diameter including the wells. The protocol: as §1
In test [4] the test system is Staphylococcus aureus (ATCC 25923). Kind of test: Radial diffusion assay (RDA). It is filed as cell-based. The following applies: Peptides 50 μg, Gentamycin 5 μg; diameter including the wells. The protocol: as §1
Test [5] relates to Pseudomonas aeruginosa (ATCC 27853). Kind of test: Radial diffusion assay (RDA). It counts as cell-based. The note with it: Peptides 50 μg, Gentamycin 5 μg; diameter including the wells. The protocol: as §1
Test [6] deals with Klebsiella pneumoniae (ATCC 10031). Kind of test: MIC, micro broth dilution assay. It is filed as cell-based. Here is the method:
(§2) Minimum inhibition concetrations (MICs) were determined against Escherichia coli (ATCC 25922), Staphylococcus aureus (ATCC 25923), Klebsiella pneumoniae (ATCC 10031) and Pseudomonas aeruginosa (ATCC 27853). Also clinical strains of E. coli, K. pneumoniae, E. cloacae, P. aeruginosa, Serratia marcescens, Proteus mirabilis, S. pneumoniae, Acinetobacter baumannii, A. johnsonii and S. aureus were used for MICs assays. Additionally, clinical strains of yeast including Candida albicans, C. glabrata, C. parapsilosis and C. quillermondiae were used. The susceptibility of these microorganisms to Chain peptides were determined using micro broth dilution assay. Colonies of the respective microorganism from Muller Hinton (MH) agar plates incubated overnight were suspended in MH broth media and final concentration of microorganism was adjusted to 5.0×10^5 cfu/ml. An aliquot of 10 μl of each Chain peptide, or gentamicin, tetracycline as reference antibiotics were added in differing concentrations along with 90 μl of bacterial suspension to 96 well polypropylene plates and incubated at 37° C. for 20 to 24 hours. […] Similarly, antifungal MICs were tested in Potato dextrose broth.
On the technique in general: Dilution methods test growth across graded concentrations, often in twofold steps.

In test [7] the test system is Escherichia coli (ATCC 25922). As to the kind of experiment: MIC, micro broth dilution assay. It counts as cell-based. Here is the method: as §2
Test [8] has as its system Staphylococcus aureus (ATCC 25923). As to the kind of experiment: MIC, micro broth dilution assay. It is filed as cell-based. Here is the method:
as §2

The subject of test [9] is Pseudomonas aeruginosa (ATCC 27853). As to the kind of experiment: MIC, micro broth dilution assay. It is filed as cell-based. The protocol: as §2

In the case of `CC(C)C[C@@H](NC(=O)[C@H](N)CCCNC(=N)N)C(=O)N[C@H](CCCCN)C(=O)N[C@H](CCCNC(=N)N)C(=O)N[C@H](Cc1c[nH]c2ccccc12)C(=O)N[C@H](CCCNC(=N)N)C(=O)N[C@H](CC(C)C)C(=O)N[C@H](Cc1ccccc1)C(=O)N[C@H](CCCNC(=N)N)C(=O)N[C@H](CCCCN)C(=O)N[C@H](CCCNC(=N)N)C(=O)O` [Chain306D] (H-[dR][dL][dK][dR][dW][dR][dL][dF][dR][dK][dR]-OH), the “activity for the rest of the bacterial strains” value in test [1] is over 32 µg/mL.
As for `CC(C)C[C@@H](NC(=O)[C@@H](CCCCN)NC(=O)[C@@H](CCCCN)NC(=O)[C@@H](Cc1ccccc1)NC(=O)[C@@H](CC(C)C)NC(=O)[C@@H](Cc1c[nH]c2ccccc12)NC(=O)[C@@H](CCCNC(=N)N)NC(=O)[C@@H](Cc1c[nH]c2ccccc12)NC(=O)[C@@H](CCCCN)NC(=O)[C@@H](CCCNC(=N)N)NC(=O)[C@H](N)CCCCN)C(=O)O` [Chain310D] (H-[dK][dR][dK][dW][dR][dW][dL][dF][dK][dK][dL]-OH), the “MIC against the MRSA strains along with Ertapenem” value with MRSA strains was determined as 0.03 µg/mL.
On to Gentamicin [reference compound], for which the “Inhibition zone, Klebsiella pneumoniae” value in test [2] stood at 22 mm. In addition, in test [3], the “Inhibition zone, Escherichia coli” value is recorded as 22 mm. Also, the “Inhibition zone, Staphylococcus aureus” value in test [4] is 24 mm. The “Inhibition zone, Pseudomonas aeruginosa” value in test [5] came to 24 mm. Moreover, the “Minimum inhibitory concentration, Klebsiella pneumoniae (ATCC 10031)” value in test [6] came out at 0.25 µg/mL. In test [7], the “Minimum inhibitory concentration, Escherichia coli (ATCC 25922)” value was 1 µg/mL. In addition, in test [8], the “Minimum inhibitory concentration, Staphylococcus aureus (ATCC 25923)” value is 0.25 µg/mL. For the same compound, the “Minimum inhibitory concentration, Pseudomonas aeruginosa (ATCC 27853)” value in test [9] came to 0.25 µg/mL.
